# Experimental data taken from ChEMBL document CHEMBL6103616, “Isolation and Biosynthesis of Hyellamide, a Glycosylated N-Acyltyrosine Derivative, from the Cyanobacterium Hyella patelloides LEGE 07179” (J Nat Prod, 2025).
# Active and inactive are the calls of the source. The calls are words filed in the database; no cut-off is given here.
# System: Bacillus subtilis
# Assay: Antibacterial activity against Bacillus subtilis […] assessed as growth inhibition by agar disk diffusion method
# Format: functional, organism-based
compound,measurement,value
CCCCCCCCCCCCCC(=O)N/C=C/c1ccc(O[C@@H]2OC[C@@H](O)[C@H](OC(C)=O)[C@H]2O)cc1,Activity,inactive
